The text below walks through data of patent publication US8802674B2, “Aminopyrimidine derivatives as LRRK2 modulators” (Genentech, Inc., priority 2011, dated 2014).

pKi: −log10 of the molar value.

The target of the experiment is LRRK2 (Homo sapiens (Human), UniProt Q5S007, G2019S). Description: In Vitro LRRK2 LabChip Assay. It is filed as biochemical. To be noted: Table 4. Put shortly: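 Potency (Ki in μM, IC50 or % inhibition) derived from capillary-electrophoresis separation of phospho- and unphosphorylated fluorescent peptide, with Ki fitted by a tight-binding model.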
Sequence of LRRK2 (Q5S007 970-2527 G2019S limits assumed): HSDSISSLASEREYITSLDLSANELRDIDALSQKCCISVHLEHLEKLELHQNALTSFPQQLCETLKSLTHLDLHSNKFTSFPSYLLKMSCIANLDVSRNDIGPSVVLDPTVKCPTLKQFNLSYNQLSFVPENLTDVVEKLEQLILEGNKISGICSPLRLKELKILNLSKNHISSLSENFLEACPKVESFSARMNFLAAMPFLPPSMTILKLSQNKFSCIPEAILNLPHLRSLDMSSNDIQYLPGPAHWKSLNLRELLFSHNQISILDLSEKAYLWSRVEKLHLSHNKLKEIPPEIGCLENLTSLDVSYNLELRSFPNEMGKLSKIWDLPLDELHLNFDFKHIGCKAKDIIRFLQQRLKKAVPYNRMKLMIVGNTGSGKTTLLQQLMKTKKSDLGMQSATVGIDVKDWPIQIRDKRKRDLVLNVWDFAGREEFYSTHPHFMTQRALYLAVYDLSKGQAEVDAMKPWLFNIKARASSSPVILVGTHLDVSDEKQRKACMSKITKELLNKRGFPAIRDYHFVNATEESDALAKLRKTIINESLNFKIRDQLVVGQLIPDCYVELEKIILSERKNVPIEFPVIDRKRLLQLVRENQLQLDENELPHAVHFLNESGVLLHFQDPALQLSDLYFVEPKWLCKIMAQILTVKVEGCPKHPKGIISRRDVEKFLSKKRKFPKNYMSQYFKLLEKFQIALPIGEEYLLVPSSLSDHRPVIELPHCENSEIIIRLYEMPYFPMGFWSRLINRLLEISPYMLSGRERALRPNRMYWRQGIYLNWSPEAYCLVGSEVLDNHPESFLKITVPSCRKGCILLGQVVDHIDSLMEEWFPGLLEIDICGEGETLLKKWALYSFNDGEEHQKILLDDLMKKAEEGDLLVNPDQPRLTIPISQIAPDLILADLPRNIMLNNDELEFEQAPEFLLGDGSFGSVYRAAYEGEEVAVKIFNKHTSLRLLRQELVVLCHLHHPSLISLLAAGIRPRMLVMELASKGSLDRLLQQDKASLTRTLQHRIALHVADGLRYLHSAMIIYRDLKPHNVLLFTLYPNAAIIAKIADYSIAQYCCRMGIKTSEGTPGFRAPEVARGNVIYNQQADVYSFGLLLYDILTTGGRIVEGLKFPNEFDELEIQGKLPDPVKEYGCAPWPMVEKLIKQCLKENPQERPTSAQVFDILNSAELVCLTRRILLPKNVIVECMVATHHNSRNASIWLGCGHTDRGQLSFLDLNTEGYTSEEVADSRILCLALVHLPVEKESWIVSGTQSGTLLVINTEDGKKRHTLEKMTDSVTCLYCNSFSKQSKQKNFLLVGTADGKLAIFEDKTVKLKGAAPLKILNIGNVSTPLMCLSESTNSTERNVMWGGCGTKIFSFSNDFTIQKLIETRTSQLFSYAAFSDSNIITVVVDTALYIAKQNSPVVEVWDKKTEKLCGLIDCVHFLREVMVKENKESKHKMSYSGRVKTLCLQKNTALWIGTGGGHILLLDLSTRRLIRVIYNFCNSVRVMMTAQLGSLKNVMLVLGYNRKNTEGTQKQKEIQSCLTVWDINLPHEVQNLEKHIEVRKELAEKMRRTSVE
`CNc1nc(Nc2cc(F)c(C(=O)N3CCC(C#N)C3)cc2OC)ncc1C(F)(F)F` (stereo not drawn) [Example 178, l-[2-Fluoro-5-methoxy-4-(4-methylamino-5-trifluoromethyl-pyrimidin-2-ylamino)-benzoyl]-pyrrolidine-3-carbonitrile]: the pKi (commonly the Ki on a negative log10 scale, so that one unit is a factor of ten) is 8.74. Take `CNC(=O)c1cc(OC)c(Nc2ncc(C(F)(F)F)c(NC)n2)cc1F` [Example 180, 2-Fluoro-5-methoxy-N-methyl-4-(4-methylamino-5-trifluoromethyl-pyrimidin-2-ylamino)-benzamide]: the pKi is 8.33. This pKi is 0.41 log units lower than that of the compound before. In turn, `CNc1nc(Nc2cc(OC)c(C(=O)N(C)CC(C)(C)O)cc2Cl)ncc1C(F)(F)F` [Example 181, 5-Chloro-N-(2-hydroxy-2-methyl-propyl)-2-methoxy-N-methyl-4-(4-methylamino-5-trifluoromethyl-pyrimidin-2-ylamino)-benzamide] gave a pKi of 8.20. This pKi and that of the compound before are within 0.2 log units of each other.

With `COc1cc(C(=O)N2CCOCC2)ccc1Nc1ncc(C2CC2)c(OC)n1` [Example 182, (4-(5-cyclopropyl-4-methoxypyrimidin-2-ylamino)-3-methoxyphenyl) (morpholino) methanone], the pKi is 7.05. For `CNc1nc(Nc2ccc(C(=O)N3CCOCC3)cc2OC)ncc1C(C)=O` [Example 183, l-{2-[2-Methoxy-4-(morpholine-4-carbonyl)-phenylamino]-4-methylamino-pyrimidin-5-yl}-ethanone], the pKi is 7.17. Take `COCCNc1nc(Nc2cc(F)c(C(=O)N3CCOCC3)cc2OC)ncc1Br` [Example 185, {4-[5-Bromo-4-(2-methoxy-ethylamino)-pyrimidin-2-ylamino]-2-fluoro-5-methoxy-phenyl}-morpholin-4-yl-methanone]: the pKi was 8.16. For `COCCNc1nc(Nc2ccc(C(=O)N3CCOCC3)cc2OC(C)C)ncc1Br` [Example 186, {4-[5-Bromo-4-(2-methoxy-ethylamino)-pyrimidin-2-ylamino]-3-isopropoxy-phenyl}-morpholin-4-yl-methanone] the value was 7.87; for `COCCOc1nc(Nc2ccc(C(=O)N3CCOCC3)cc2OC2CCC2)ncc1Cl` [Example 187, {4-[5-Chloro-4-(2-methoxy-ethoxy)-pyrimidin-2-ylamino]-3-cyclobutoxy-phenyl}-morpholin-4-yl-methanone], 7.84.

In turn, `CNc1nc(Nc2ccc(C(=O)N3CC4(COC4)C3)cc2OC2CCCC2)ncc1Cl` [Example 188, [4-(5-Chloro-4-methylamino-pyrimidin-2-ylamino)-3-cyclopentyloxy-phenyl]-(2-oxa-6-aza-spiro[3.3]hept-6-yl)-methanone] showed a pKi of 8.20. For `CNc1nc(Nc2ccc(C(=O)N3CC4(COC4)C3)cc2OC)ncc1Cl` [Example 190, [4-(5-Chloro-4-methylamino-pyrimidin-2-ylamino)-3-methoxy-phenyl]-(2-oxa-6-aza-spiro[3.3]hept-6-yl)-methanone] the value was 8.20. In turn, `CNc1nc(Nc2ccc(C(=O)N3CC(F)(F)OC(F)(F)C3)cc2OC)ncc1C#N` [Example 191, 2-(2-methoxy-4-(2,2,6,6-tetrafluoromorpholine-4-carbonyl)phenylamino)-4-(methylamino) pyrimidine-5-carbonitrile] showed a pKi of 7.68. Consider `CNc1nc(Nc2ccc(C(=O)N3CCOCC3)cc2C2CC2)ncc1Cl` [Example 193, [4-(5-Chloro-4-methylamino-pyrimidin-2-ylamino)-3-cyclopropyl-phenyl]-morpholin-4-yl-methanone], for which the pKi is 7.62. For `CNc1nc(Nc2ccc(C(=O)NC3CC(F)(F)C3)cc2OC)ncc1C#N` [Example 194, 4-(5-Cyano-4-methylamino-pyrimidin-2-ylamino)-N-(3,3-difluoro-cyclobutyl)-3-methoxy-benzamide] the value was 8.19; for `CNc1nc(Nc2ccc(C(=O)NCC3CC3)cc2OC)ncc1C#N` [Example 195, 4-(5-Cyano-4-methylamino-pyrimidin-2-ylamino)-N-cyclopropylmethyl-3-methoxy-benzamide], 8.38; for `CNc1nc(Nc2ccc(C(=O)N3CC[C@H](F)C3)cc2OC)ncc1C#N` [Example 196, 2-[4-((S)-3-Fluoro-pyrrolidine-1-carbonyl)-2-methoxy-phenylamino]-4-methylamino-pyrimidine-5-carbonitrile], 8.22.

`CNC(=O)c1ccc(Nc2ncc(C#N)c(NC)n2)c(OC)c1` [Example 197, 4-(5-Cyano-4-methylamino-pyrimidin-2-ylamino)-3-methoxy-N-methyl-benzamide] gave a pKi of 8.18. The pKi values of the last two compounds are within 0.2 log units of each other. For `CCN(CC)C(=O)c1ccc(Nc2ncc(C#N)c(NC)n2)c(OC)c1` [Example 199, 4-(5-Cyano-4-methylamino-pyrimidin-2-ylamino)-N,N-diethyl-3-methoxy-benzamide] the value was 8.17; for `CNc1nc(Nc2ccc(C(=O)NC(C)C)cc2OC)ncc1C#N` [Example 200, 4-(5-Cyano-4-methylamino-pyrimidin-2-ylamino)-N-isopropyl-3-methoxy-benzamide], 8.36. For `CCNC(=O)c1ccc(Nc2ncc(C#N)c(NC)n2)c(OC)c1` [Example 203, 4-(5-Cyano-4-methylamino-pyrimidin-2-ylamino)-N-ethyl-3-methoxy-benzamide] the value was 8.02; for `CNc1nc(Nc2ccc(C(=O)N3CCCCC3)cc2OC)ncc1C#N` [Example 204, 2-[2-Methoxy-4-(piperidine-1-carbonyl)-phenylamino]-4-methylamino-pyrimidine-5-carbonitrile], 8.48.

Compound `CNc1nc(Nc2ccc(C(=O)NCC(F)F)cc2OC)ncc1C#N` [Example 205, 4-(5-Cyano-4-methylamino-pyrimidin-2-ylamino)-N-(2,2-difluoro-ethyl)-3-methoxy-benzamide] had a pKi of 7.92.

The compound `CNc1nc(Nc2ccc(C(=O)NC(C)(C)C)cc2OC)ncc1C#N` [Example 206, N-tert-Butyl-4-(5-cyano-4-methylamino-pyrimidin-2-ylamino)-3-methoxy-benzamide] showed a pKi of 8.34. For `CCN(C(=O)c1ccc(Nc2ncc(C#N)c(NC)n2)c(OC)c1)C(C)C` [Example 207, 4-(5-Cyano-4-methylamino-pyrimidin-2-ylamino)-N-ethyl-N-isopropyl-3-methoxy-benzamide] the value was 8.27. Next, `CNc1nc(Nc2ccc(C(=O)N3CCC(F)(F)C3)cc2OC)ncc1C#N` [Example 208, 2-[4-(3,3-Difluoropyrrolidine-1-carbonyl)-2-methoxy-phenylamino]-4-methylamino-pyrimidine-5-carbonitrile]: 8.09; `CNc1nc(Nc2ccc(C(=O)N3CCC3)cc2OC)ncc1C#N` [Example 212, 2-[4-(Azetidine-1-carbonyl)-2-methoxy-phenylamino]-4-methylamino-pyrimidine-5-carbonitrile]: 7.58. `CNc1nc(Nc2ccc(C(=O)N(C)C(C)C)cc2OC)ncc1C#N` [Example 213, 4-(5-Cyano-4-methylamino-pyrimidin-2-ylamino)-N-isopropyl-3-methoxy-N-methyl-benzamide] had a pKi of 8.17. In turn, `COc1cc(C(=O)N2CCOCC2)ccc1Nc1ncc(Cl)c(NC2CCOC2)n1` (stereo not shown) [Example 214, {4-[5-Chloro-4-(tetrahydro-furan-3-ylamino)-pyrimidin-2-ylamino]-3-methoxy-phenyl}-morpholin-4-yl-methanone] gave a pKi of 7.74. On to `CNc1nc(Nc2ccc(C(=O)N3CCOCC3)cc2OC(C)C)ncc1C(F)(F)F` [Example 215, [3-Isopropoxy-4-(4-methylamino-5-trifluoromethyl-pyrimidin-2-ylamino)-phenyl]-morpholin-4-yl-methanone], for which the pKi was 8.03.

The compound `CCOc1cc(C(=O)N2CCOCC2)ccc1Nc1ncc(C(F)(F)F)c(NC)n1` [Example 216, [3-Ethoxy-4-(4-methylamino-5-trifluoromethyl-pyrimidin-2-ylamino)-phenyl]-morpholin-4-yl-methanone] had a pKi of 8.38.

The compound `CNc1nc(Nc2ccc(C(=O)N3CCOCC3)cc2OC2CC2)ncc1Cl` [Example 217, [4-(5-Chloro-4-methylamino-pyrimidin-2-ylamino)-3-cyclopropoxy-phenyl]-morpholin-4-yl-methanone] had a pKi of 8.70.

In the case of `COc1nc(Nc2ccc(C(=O)N3CCOCC3)cc2OC2CC2)ncc1Br` [Example 218, [4-(5-Bromo-4-methoxy-pyrimidin-2-ylamino)-3-cyclopropoxy-phenyl]-morpholin-4-yl-methanone], the pKi is 8.60. `COc1cc(C(=O)N2CCOCC2)ccc1Nc1ncc(Cl)c(NCCS(C)(=O)=O)n1` [Example 219, {4-[5-Chloro-4-(2-methanesulfonyl-ethylamino)-pyrimidin-2-ylamino]-3-methoxy-phenyl}-morpholin-4-yl-methanone] had a pKi of 7.58. This pKi lies 1.02 log units lower than the previous one. For `CNc1nc(Nc2cc(OC)c(CC(=O)N3CCOCC3)cc2OC)ncc1Br` [Example 220, 2-[4-(5-Bromo-4-methylamino-pyrimidin-2-ylamino)-2,5-dimethoxy-phenyl] 1-morpholin-4-yl-ethanone] the value was 8.47; for `CNc1nc(Nc2cc(OC)c(CC(=O)N3CCOCC3)cc2OC)ncc1Cl` [Example 221, 2-[4-(5-Chloro-4-methylamino-pyrimidin-2-ylamino)-2,5-dimethoxy-phenyl] 1-morpholin-4-yl-ethanone], 8.06; for `CNc1nc(Nc2ccc(CC(=O)N3CCOCC3)cc2OC)ncc1Cl` [Example 222, 2-[4-(5-Chloro-4-methylamino-pyrimidin-2-ylamino)-3-methoxy-phenyl]-1-morpholin-4-yl-ethanone], 8.05.

`CNc1nc(Nc2ccc(CC(=O)N3CCOCC3)cc2OC)ncc1C(F)(F)F` [Example 223, 2-[3-Methoxy-4-(4-methylamino-5-trifluoromethyl-pyrimidin-2-ylamino)-phenyl]-1-morpholin-4-yl-ethanone] had a pKi of 8.28. For `COc1cc(CC(=O)N2CCOCC2)ccc1Nc1ncc(Br)c(OC)n1` [Example 226, 2-[4-(5-Bromo-4-methoxy-pyrimidin-2-ylamino)-3-methoxy-phenyl]-1-morpholin-4-yl-ethanone] the value was 8.25.
